Laboratory results taken from patent US5798352A, “Antithrombotic amidinotetrahydropyridylalanine derivatives” (Pfizer Inc., priority 1995, dated 1998).
Structures can show the parent of a compound that is named as a salt.

Tests used:
thrombin = thrombin (Bos taurus, UniProt P00735); experiment: Chromogenic assay, thrombin inhibition (substrate S2238); format: biochemical; settings: in vitro; bovine thrombin; Ki calculated from substrate Km and IC50; pH 8.0, 30° C.
Protocol: (§1) The biological activities of the compounds of the present invention were determined by the following test methods.
(§2) The inhibition of thrombin, trypsin, plasmin or factor Xa is measured in 96 well plate chromogenic assays. The percentage inhibition and IC50 are calculated from triplicate samples of an 8 concentration dose-response curve. From the substrate Km and IC50, the Ki for each inhibitor is calculated. All assays are carried out in a total incubation of 200 μl of 50 mM HEPES and 150 mM NaCl at pH 8.0, and all compound dilutions are preincubated with enzyme at room temperature for 15 minutes prior to addition of substrate. After 30 minutes incubation at 30° C., the O.D. is measured at […] in a 96 well plate reader. Thrombin activity is measured using bovine thrombin and S2238 (H-D-Phe-Pip-Arg-pNA), bovine pancreatic trypsin is assayed with S2222 (Benz-Isoleu-Glu-Gly-Arg-pNA), bovine plasma plasmin is assayed with Chromozym PL (Tosyl-Gly-Pro-Lys-pNA)and bovine fac or Xa is assayed in 50 mM Tris, 150 mM NaCl, pH 7.5 buffer with S2222.

trypsin = molecular target: T1, trypsin (Bos taurus, UniProt P00760); experiment: Chromogenic assay, trypsin inhibition (substrate S2222); format: biochemical; settings: in vitro; bovine pancreatic trypsin; Ki calculated from substrate Km and IC50; pH 8.0, 30° C.
T1 construct: from tissue; host or cells: bovine pancreas
T1 sequence (P00760 24-246): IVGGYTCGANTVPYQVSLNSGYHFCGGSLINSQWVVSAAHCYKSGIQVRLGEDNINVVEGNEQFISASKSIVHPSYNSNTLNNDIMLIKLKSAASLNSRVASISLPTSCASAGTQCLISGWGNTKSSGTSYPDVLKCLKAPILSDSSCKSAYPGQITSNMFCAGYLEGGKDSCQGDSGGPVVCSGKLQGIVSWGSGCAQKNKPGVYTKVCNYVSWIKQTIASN
Protocol: as §1, §2

Row | Structure (SMILES) | Ki (thrombin) | Ki (trypsin)
1 | C[C@@H]1CCN(C(=O)[C@H](CC2=CCCN(C(=N)N)C2)NS(=O)(=O)c2ccc3c(c2)CN(C)CC3)[C@H](C(=O)O)C1 [Example 5, 4(R)-Methyl-1-[N-(2-methyl-1,2,3,4-tetrahydroisoquinoline-7-sulphonyl)-3-(1-amidino-1,2,5,6-tetrahydro-3-pyridyl)-(S)-alanyl]piperidine-2(S-carboxylicacid dihydrochloride] | 1.9 nM | 2400 nM
2 | C[C@H]1CCN(C(=O)[C@H](CC2=CCCN(C(=N)N)C2)NS(=O)(=O)c2ccc3c(c2)CN(C)CC3)[C@@H](C(=O)O)C1 [Example 6, 4(S)-Methyl-1-[N-(2-methyl-1,2,3,4-tetrahydroisoquinoline-7-sulphonyl)-3-(1-amidino-1,2,5,6-tetrahydro-3-pyridyl)-(S)-alanyl]piperidine-2(R)-carboxylic acid dihydrochloride] | 9.9 nM | 690 nM
